DBAASP
Converted amounts (≈) assume the structure as drawn. Values belong to the molecule of their own block, whether it stands above or below them.

Assays:
Assay in all cases: ≥ marks a high value that may be exact or a test limit, other limits are often not marked, values filed in µg/mL are converted to µM
[1] = test system: Pseudomonas aeruginosa ATCC 27853
Candida krusei ATCC 6258 = test system: Candida krusei ATCC 6258
[2] = test system: Candida parapsilosis ATCC 22019
[3] = test system: Staphylococcus aureus ATCC 25923
[4] = test system: Escherichia coli ATCC 25922
[5] = test system: Bacillus subtilis ATCC 19659
[6] = test system: Cryptococcus neoformans ATCC 90012
[7] = test system: Candida albicans ATCC 90028
[8] = test system: Streptococcus pyogenes ATCC 19615
[9] = test system: Enterococcus faecalis ATCC 29212
[10] = test system: Klebsiella pneumoniae ATCC 13883
[11] = test system: Acinetobacter baumannii ATCC 19606
[12] = test system: Staphylococcus aureus ATCC BAA-44
Listeria ivanovii = test system: Listeria ivanovii
Saccharomyces cerevisiae = test system: Saccharomyces cerevisiae
[13] = test system: Flavobacterium sp. PAMC 22217
[14] = test system: Escherichia coli DH5alpha
[15] = test system: Staphylococcus aureus ATCC 33591
[16] = test system: Shigella sonnei ATCC 29930
[17] = test system: Enterobacter cloacae ATCC 13047
[18] = test system: Pseudomonas aeruginosa ATCC 15442
[19] = test system: Candida tropicalis ATCC 20115
[20] = test system: Candida glabrata ATCC 2001
[21] = test system: Lacinutrix algicola AKS293T
[22] = test system: Listeria monocytogenes ATCC 15313
[23] = test system: Psychrobacter sp. PAMC 21119
[24] = test system: Burkholderia cepacia ATCC 25416
Escherichia coli = test system: Escherichia coli
[25] = test system: Staphylococcus aureus ATCC 29213
[26] = test system: Candida albicans LABMIC 0107
[27] = test system: Candida tropicalis LABMIC 0109
[28] = test system: Candida tropicalis LABMIC 0112
[29] = test system: Microsporum canis LABMIC 0401
Klebsiella pneumoniae = test system: Klebsiella pneumoniae
[30] = test system: Papiliotrema laurentii LABMIC 0404
Enterococcus faecalis = test system: Enterococcus faecalis
Staphylococcus aureus = test system: Staphylococcus aureus
[31] = test system: Candida parapsilosis LABMIC 0113
Streptococcus pyogenes = test system: Streptococcus pyogenes
[32] = test system: Escherichia coli KpC+001812446
Pseudomonas aeruginosa = test system: Pseudomonas aeruginosa
[33] = test system: Klebsiella pneumoniae KpC+001825971
Acinetobacter baumannii = test system: Acinetobacter baumannii
[34] = test system: Trichophyton rubrum LABMIC 0203
[35] = test system: Staphylococcus haemolyticus
Escherichia coli ESBL = test system: Escherichia coli ESBL
[36] = test system: Streptococcus sp. Group G
[37] = test system: Escherichia coli ATCC 35218
[38] = test system: Staphylococcus saprophyticus
[39] = test system: Staphylococcus epidermidis
[40] = test system: Staphylococcus aureus ATCC 43300
[41] = test system: Streptococcus sp. Group C

SMILES: CC[C@H](C)[C@H](NC(=O)[C@H](C)NC(=O)CNC(=O)[C@H](Cc1ccccc1)NC(=O)[C@@H](NC(=O)[C@@H](N)CC(=O)O)[C@@H](C)CC)C(=O)N[C@@H](Cc1c[nH]c2ccccc12)C(=O)N1CCC[C@H]1C(=O)N[C@@H](CC(C)C)C(=O)N[C@@H](C)C(=O)N[C@@H](CC(C)C)C(=O)NCC(=O)N[C@@H](C)C(=O)N[C@@H](CC(C)C)C(=O)N[C@@H](CCCCN)C(=O)N[C@@H](CC(N)=O)C(=O)N[C@@H](CC(C)C)C(=O)N[C@H](C(=O)N[C@@H](CCCCN)C(N)=O)[C@@H](C)CC [DIFGAIWPLALGALKNLIK]
- MIC [1]: > 128 µM
- MIC (Candida krusei ATCC 6258): 16 µM (≈ 32.8 µg/mL)
- MIC [2]: 16 µM (≈ 32.8 µg/mL)
- MIC [3]: 8 µM (≈ 16.4 µg/mL)
- MIC [4]: > 128 µM
- MIC [5]: 4 µM (≈ 8.21 µg/mL)
- MIC [6]: 16 µM (≈ 32.8 µg/mL)
- MIC [7]: 16 µM (≈ 32.8 µg/mL)

SMILES: CC[C@H](C)[C@H](NC(=O)CNC(=O)[C@H](CCCN=C(N)N)NC(=O)[C@H](Cc1ccccc1)NC(=O)[C@H](CC(C)C)NC(=O)[C@H](Cc1cnc[nH]1)NC(=O)CNC(=O)[C@H](Cc1ccccc1)NC(=O)[C@@H](N)Cc1ccccc1)C(=O)N[C@H](C(=O)N[C@@H](CC(N)=O)C(=O)N[C@H](C(=O)NCC(=O)N[C@@H](CCCCN)C(=O)N[C@@H](Cc1cnc[nH]1)C(=O)N[C@H](C(=O)N[C@@H](Cc1cnc[nH]1)C(=O)NCC(=O)N[C@@H](CC(C)C)C(=O)N[C@@H](CC(C)C)C(=O)N[C@@H](CO)C(=O)NCC(N)=O)[C@@H](C)CC)C(C)C)[C@@H](C)CC [FFGHLFRGIINVGKHIHGLLSG]
- MIC [13]: 1.5 µM (≈ 3.63 µg/mL)
- MIC [8]: 2.5 µM (≈ 6.05 µg/mL)
- MIC [9]: 25 µM (≈ 60.5 µg/mL)
- MIC [14]: 5 µM (≈ 12.1 µg/mL)
- MIC [15]: 5 µM (≈ 12.1 µg/mL)
- MIC [16]: 5 µM (≈ 12.1 µg/mL)
- MIC [17]: 25 µM (≈ 60.5 µg/mL)
- MIC [18]: ≥ 50 µM
- MIC [19]: 5 µM (≈ 12.1 µg/mL)
- MIC [20]: ≥ 50 µM
- MIC [21]: 1.25 µM (≈ 3.02 µg/mL)
- MIC [22]: 5 µM (≈ 12.1 µg/mL)
- MIC [23]: 1.25 µM (≈ 3.02 µg/mL)
- MIC [24]: ≥ 50 µM

Now from value to molecule, other results behind:

- MIC [1]: > 100 µM
- MIC [8]: ≥ 50 µM
- MIC [9]: > 100 µM
- MIC [2]: ≥ 100 µM
- MIC [10]: ≥ 100 µM
- MIC [11]: > 100 µM
- MIC [12]: ≥ 100 µM
- MIC [3]: 100 µM (≈ 115 µg/mL)
- MIC [4]: > 100 µM
- MIC (Listeria ivanovii): ≥ 100 µM
- MIC (Saccharomyces cerevisiae): ≥ 100 µM
- MIC [7]: ≥ 100 µM
SMILES: CC[C@H](C)[C@H](NC(=O)[C@H](CCCN=C(N)N)NC(=O)[C@H](CCCN=C(N)N)NC(=O)[C@H](CC(C)C)NC(=O)[C@H](Cc1ccccc1)NC(=O)[C@H](Cc1ccccc1)NC(=O)[C@@H](N)Cc1ccccc1)C(=O)N[C@@H](Cc1ccccc1)C(=O)O [FFFLRRIF]

- MIC (Escherichia coli): 3.37 µM (≈ 8 µg/mL)
- MIC [25]: > 54 µM
- MIC [26]: 9.99 µM (≈ 23.7 µg/mL)
- MIC [27]: 9.99 µM (≈ 23.7 µg/mL)
- MIC [1]: 27 µM (≈ 64 µg/mL)
- MIC [28]: 5 µM (≈ 11.8 µg/mL)
- MIC (Candida krusei ATCC 6258): 5 µM (≈ 11.8 µg/mL)
- MIC [9]: > 54 µM
- MIC [29]: ≥ 40 µM
- MIC [2]: ≥ 40 µM
- MIC [10]: 0.843 µM (≈ 2 µg/mL)
- MIC (Klebsiella pneumoniae): 3.37 µM (≈ 8 µg/mL)
- MIC [30]: 5 µM (≈ 11.8 µg/mL)
- MIC (Enterococcus faecalis): ≥ 54 µM
- MIC (Staphylococcus aureus): > 54 µM
- MIC [31]: 5 µM (≈ 11.8 µg/mL)
- MIC (Streptococcus pyogenes): 3.37 µM (≈ 8 µg/mL)
- MIC [32]: 0.843 µM (≈ 2 µg/mL)
- MIC [3]: 6.75 µM (≈ 16 µg/mL)
- MIC (Pseudomonas aeruginosa): 27 µM (≈ 64 µg/mL)
- MIC [33]: 3.37 µM (≈ 8 µg/mL)
- MIC (Acinetobacter baumannii): 1.69 µM (≈ 4 µg/mL)
- MIC [34]: ≥ 40 µM
SMILES: CC[C@H](C)[C@H](NC(=O)[C@H](CCCCN)NC(=O)[C@H](CCCCN)NC(=O)[C@H](CC(C)C)NC(=O)[C@H](CCCN=C(N)N)NC(=O)[C@H](CCCCN)NC(=O)[C@@H](N)CCCCN)C(=O)N[C@@H](Cc1ccccc1)C(=O)N[C@@H](CCCCN)C(=O)N[C@@H](CCCCN)C(=O)N1CCC[C@H]1C(=O)N[C@@H](CCSC)C(=O)N[C@H](C(=O)N[C@H](C(=O)NCC(=O)N[C@H](C(=O)N[C@H](C(=O)N[C@H](C(=O)N1CCC[C@H]1C(=O)N[C@@H](Cc1ccccc1)C(N)=O)[C@@H](C)CC)[C@@H](C)O)C(C)C)[C@@H](C)CC)C(C)C [KKRLKKIFKKPMVIGVTIPF]

- MIC (Escherichia coli): 8.28 µM (≈ 16 µg/mL)
- MIC [25]: 8.28 µM (≈ 16 µg/mL)
- MIC [1]: 33.1 µM (≈ 64 µg/mL)
- MIC [8]: 8.28 µM (≈ 16 µg/mL)
- MIC (Escherichia coli ESBL): 16.6 µM (≈ 32 µg/mL)
- MIC [36]: 11.7 µM (≈ 22.6 µg/mL)
- MIC [37]: 8.28 µM (≈ 16 µg/mL)
- MIC [38]: ≥ 33.1 µM
- MIC (Staphylococcus aureus): 11.7 µM (≈ 22.6 µg/mL)
- MIC (Streptococcus pyogenes): 11.7 µM (≈ 22.6 µg/mL)
- MIC [39]: 4.14 µM (≈ 8 µg/mL)
- MIC [40]: 8.28 µM (≈ 16 µg/mL)
- MIC (Pseudomonas aeruginosa): 66.2 µM (≈ 128 µg/mL)
- MIC [4]: 8.28 µM (≈ 16 µg/mL)
- MIC [41]: 4.14 µM (≈ 8 µg/mL)
SMILES: NC(=O)[C@H](Cc1c[nH]c2ccccc12)NC(=O)[C@H](Cc1c[nH]c2ccccc12)NC(=O)[C@H](Cc1c[nH]c2ccccc12)NC(=O)[C@H](Cc1c[nH]c2ccccc12)NC(=O)[C@@H]1CCCN1C(=O)[C@H](CCCN=C(N)N)NC(=O)[C@@H]1CCCN1C(=O)[C@H](CCCN=C(N)N)NC(=O)[C@@H]1CCCN1C(=O)[C@H](CCCN=C(N)N)NC(=O)[C@@H]1CCCN1C(=O)[C@H](CCCN=C(N)N)NC(=O)[C@@H](N)CCCN=C(N)N [RRPRPRPRPWWWW]
- MIC [35]: 4.14 µM (≈ 8 µg/mL)
